Structures are written as SMILES.

`O=C(O)c1cccc(CS(=O)(=O)CCO)c1` showed a melting point of 67 to 70 °C. The figure for `O=[N+]([O-])c1ccc(Oc2ccc3c(c2)OCCC3Cl)cc1` (stereo unspecified) is 67 to 68 °C. `COc1cc(-n2cnnc2I)ccc1C`: the melting point was determined as 123 °C. With `CC12CCC3c4ccc(N)cc4CCC3C1CCC2O` (stereo unspecified) the figure was 75 to 77 °C; with `CCOC(=O)C(C)(C)n1c(=O)[nH]c2cc(F)c(F)cc2c1=O`, 166 to 168 °C. In the case of `CN(C)S(=O)(=O)c1cc(S(=O)(=O)N(C)C)c(C(Cl)=C(Cl)Cl)cc1N`, the melting point is 238 to 239 °C. Molecule `COc1ccc(-c2nccc3c(C)cccc23)cc1` registered a melting point of 60.4 to 60.8 °C. With `CC(C)(C)c1cc(CC#Cc2ccc(C(=O)O)c(O)c2)cc(C(C)(C)C)c1O` the figure was 205 to 206 °C. For the molecule `Cc1coc2c(c1=O)N(C)S(=O)(=O)c1ccccc1-2`, the melting point was 214 to 216 °C. The figure for `COc1cc(OC)c2cnc(-c3cc(C)c(OCCO)c(C)c3)nc2c1` is 169 to 170 °C; for `CCC(=O)c1onc2ccccc12` it is 51 to 53 °C.

The molecule `Cc1cccc(C(=O)Nc2nc(-c3ccccc3)c(-c3ccc(=O)n(C(C)C)n3)s2)c1` displayed a melting point of 198 to 199 °C. Consider `CC(=O)C1CCC2C3CCC4=CC(=O)C=CC4(C)C3C(O)CC12CO[N+](=O)[O-]` (stereo unspecified), for which the melting point is 162 to 164 °C. In the case of `[N-]=[N+]=C1C(=O)Oc2cc(OCc3ccccc3)ccc2C1=O`, the melting point was determined as 191 °C.

Regarding `Cc1ccc(S(N)(=O)=O)cc1C(O)CN=[N+]=[N-]` (stereo unspecified), the melting point was 98 °C. With `Cc1cccc(C2(C)OC(C)C(C)O2)c1NC(=O)CCl` (stereo unspecified) the figure was 55 to 57 °C; with `O=C(Nc1ccc2c3c(oc2c1)CCC(O)C3O)c1c(Cl)cccc1Cl` (stereo unspecified), 206 to 209 °C; with `CCOCc1nc2c(N)nc(C)c(C)c2n1NCCCS(C)(=O)=O`, 150 to 155 °C. In the case of `CCS(=O)(=O)Nc1cc(Br)cc(Cc2c[nH]cn2)c1C`, the melting point lay in the range of 202 to 204 °C. The figure for `Cc1ccc(S(=O)(=O)N2c3ccccc3C(c3ccccc3)(c3ccccc3)C2NC(=O)Nc2ccc(F)cc2F)cc1` (stereo unspecified) is 244 to 246 °C; for `Cc1ccc(S(=O)(=O)NC(=O)NCCc2ccc(-n3c(C(C)O)nc4cc(C(F)(F)F)c(Cl)cc43)cc2)cc1` (stereo unspecified) it is 220 °C; for `C[Si](C)(C)CCCCCCCNC(=O)n1cc(F)c(=O)[nH]c1=O` it is 118 to 119 °C.

Regarding `Cc1cc(Cl)cc(C(=O)NCC(C)S(C)=O)c1NC(=O)c1cc(C(F)(F)F)nn1-c1ncccc1Cl` (stereo unspecified), the melting point lay in the range of 229 to 232 °C.

In turn, `CC1COc2c(N3Cc4ccccc4C3)c(F)cc3c(=O)c(C(=O)O)cn1c23` (stereo unspecified) yielded a melting point of over 300 °C. With `CCCCCCCCCCCCCCCCCCOc1cc(N)cc([N+](=O)[O-])c1` the figure was 106 to 108 °C. The molecule `O=C(NC1CCCCC1)c1ccc(CCN2CC=C(c3c[nH]c(-c4ccc(F)cc4)c3-c3ccncc3)CC2)cc1` registered a melting point of 243 to 245 °C. Take `COc1cc(Nc2nc3cccc(-c4cccc(N)c4)c3o2)cc(OC)c1OC`: the melting point fell in the range of 145 to 170 °C. With `CC(=O)Oc1ccccc1N1CCN(CCCNC(=O)c2cccc3c(=O)c(C)c(-c4ccccc4)oc23)CC1` the figure was 120 to 123 °C; with `COC(=O)Cc1ccc(-c2ccc(OCCN3CCOCC3)cc2)cn1`, 135 to 137 °C. With `CC(=O)NCCSc1cc(N)c([N+](=O)[O-])cc1N` the figure was 162 °C; with `Nc1nc(-c2cc(Cl)ccc2Cl)nc(N2CCS(=O)(=O)CC2)n1`, over 275 °C; with `COCCCn1c(C=O)cc2c3c(c(-c4ccccc4Cl)cc21)C(=O)NC3=O`, 155 to 156 °C. With `CC(C)N(Cc1c(-c2ccccc2)sc(N2C(=O)c3ccccc3C2=O)c1C(=O)c1ccc(Cl)cc1)C(C)C` the figure was 168 to 170 °C; with `CCCOc1ncc2c(=O)[nH]c(-c3ccccc3OCCC)nc2n1`, 157 to 158 °C. `CC(Cn1ncc2ccc3c(c21)NC(=O)CO3)NC(=O)OC(C)(C)C` (stereo unspecified) returned a melting point of 147 to 148 °C. As to `O=C(CCCCCN1CCN(c2ccc3c(c2)CCC3)CC1)N1Cc2ccccc2C1`, the melting point was 131 °C.

`Cc1cc(S(=O)(=O)NC2CCCCC2)c2c(C)ccc(C(C)C)cc1-2`: the melting point fell in the range of 108 to 109 °C. The figure for `COc1cccc(COCCC(C(=O)O)c2ccccc2)c1` (stereo unspecified) is 112 to 114 °C; for `CC(C)C[C@@H](C(=O)O)N1C(=O)[C@@H](N2C(=O)OC[C@@H]2c2ccccc2)[C@H]1CCc1ccccc1` it is 138 to 140 °C; for `COc1ccc2c(CBr)c(Br)ccc2c1C(F)(F)F` it is 142 to 143 °C. With `COc1cc(CCNC(=O)N(C)O)cc(OC)c1OC` the figure was 100 to 102 °C. The figure for `Cc1nnc(-c2ccc3occ(-c4ccc(SCc5ccccc5)cc4)c3c2)o1` is 158 to 159 °C. The molecule `CC1Nc2ccc(-c3ccc(C#N)n3C)cc2C(C)(C)O1` (stereo unspecified) displayed a melting point of 195 to 196 °C. Regarding `CS(=O)(=O)c1ccc(-c2c(-c3ccccc3)[nH]c3ccccc23)cc1`, the melting point lay in the range of 239 to 241 °C. With `O=C(O)Cc1ccc2c(c1)CCC(c1ccccc1F)N2` (stereo unspecified) the figure was 117 to 118 °C. With `C#CCCCCNC(=O)C(F)(F)F` the figure was 41 to 42.5 °C; with `Cc1c(-c2c[nH]c3c(-c4ccccc4)cccc23)nc2ccc(F)cc2c1C(=O)O`, 148 to 150 °C. With `CC(C)Cc1[nH]c(=O)[nH]c1-c1cc(C(C)(C)C)c(O)c(C(C)(C)C)c1` the figure was 286 to 289 °C.

Consider `CCCCCCCCCCCCCCS(=O)(=O)N[C@H]1CCCNC(=O)C1`, for which the melting point is 100 to 101 °C.

Consider `COCOc1ccc(C=CC(=O)c2c(OCOC)cc(OCOC)c(CC=C(C)C)c2O)cc1OC`, for which the melting point lay in the range of 62.5 to 63.5 °C.

`O=c1c2c(N3CCNCC3)cc(Cl)cc2n(Cc2ccccc2)c(=O)n1Cc1ccccc1` showed a melting point of 115 to 123 °C.

Regarding `CC(=S)NCC1CN(c2ccc(C(=O)Oc3c(F)c(F)c(F)c(F)c3F)c(F)c2)C(=O)O1` (stereo unspecified), the melting point was in the range of 163 to 164 °C. Molecule `CCCc1ccc(-c2ccc(CCc3ccc(Cl)c(F)c3)cc2)cc1` showed a melting point of 63.6 °C. With `C#Cc1cnn2c(C(F)(F)F)cc(-c3ccc(Cl)c(C)c3)nc12` the figure was 166 °C; with `CCCCCC1OCc2cc(C(=O)O)ccc2O1` (stereo unspecified), 148 °C. Take `CCCn1cnc2cc(CN3CCN(C(c4ccccc4)c4ccccc4)CC3)ccc21`: the melting point worked out at 155 °C. Consider `COC(=O)c1cc(NC=O)ccn1`, for which the melting point lay within 185 to 186 °C. With `Cc1c(C)c2c(c(C)c1N)C(c1ccc(C(C)C)cc1)CO2` (stereo unspecified) the figure was 171 to 173 °C. As to `COCCc1cccc2oc(C(=O)Nc3ccc(-c4ccc(S(=O)(=O)NC(C(=O)OC)C(C)C)cc4)cc3)c(C)c12` (stereo unspecified), the melting point was in the range of 67 to 70 °C.

`O=C(NC(=O)c1cc(F)c(F)cc1Cl)Nc1ccc(C(=O)O)cc1OC(F)(F)F` returned a melting point of 236 °C. As to `Nc1cccc(Nc2ncnc3[nH]cc(C(=O)c4ccccc4)c23)c1`, the melting point was in the range of 280 to 282 °C. In turn, `c1ccc2c(c1)ncc1nc(C3CCCCCC3)[nH]c12` gave a melting point of 225 to 226 °C. As for `CC(=O)N(CCCC(=O)O)C(c1ccccc1)c1ccccc1`, the melting point fell in the range of 173 to 174 °C. In turn, `CCCCc1nc2ccccc2n1-c1ccc(O)cc1` showed a melting point of 192 to 194 °C. `CCOC(=O)C(NC(=O)Nc1c(F)cc(F)cc1CCc1cc(C(C)(C)C)c(O)c(C(C)(C)C)c1)c1ccccc1` (stereo unspecified) yielded a melting point of 162 to 164 °C. In turn, `COCOc1cccc2cccc(C=O)c12` registered a melting point of 56 to 57 °C.

`COC(=O)c1cc(-c2nc3ccccc3s2)cc2c1OC(c1ccccc1)(c1ccccc1)O2`: the melting point lay in the range of 184 to 185 °C. With `Cc1c(CNCC2CCOCC2)n(C)c2c(F)c(NC(=O)c3ccc(OC[C@@H]4CCCO4)cc3)ccc12` the figure was 132 to 134 °C.

The molecule `Fc1cc(Cl)c(CCl)cc1-c1ncnc(C(F)F)c1Cl` returned a melting point of 132 to 133 °C. With `CC(C)n1nc(-c2sc(NC(=O)N3CCOCC3)nc2-c2ccccc2)ccc1=O` the figure was 231 to 232 °C.

The molecule `O=C(NCc1ccccc1)c1cn2c(=O)n(Cc3ccc(Cl)cc3)c(=O)cc2s1` yielded a melting point of over 220 °C. With `CC(C)(C)OC(=O)N1CCc2c(n(CC(=O)Nc3ccccc3)c3cc(Cl)c(Cl)cc23)CC1` the figure was 172 °C; with `CCOC(=O)c1sc(OCC)nc1-c1ccccc1`, 32 to 34 °C; with `O=Cc1ccc2c(ccc3c4ccccc4ccc23)c1`, 215 to 216 °C.

Turning to `Cc1cc(SC2=C(O)CC(CCC3CCCC3)(C3CCCC3)OC2=O)c(C(C)(C)C)cc1CO` (stereo unspecified), the melting point was in the range of 68 to 71 °C. The figure for `COC(=O)c1ccc(Oc2ccc3c(c2)CCN(C2CCN(C4CCC4)CC2)C3=O)cc1` is 269 to 270 °C. Regarding `CCOC(=O)CCc1ccc(C(C)(C)C)c(NC(=O)CC2c3ccccc3Oc3ccccc32)c1`, the melting point lay in the range of 160 to 162 °C. `Cc1nc(N)nc(N)c1-c1ccc([N+](=O)[O-])c(Cl)c1Cl` registered a melting point of 265 °C. The molecule `O=c1c(-c2cccc(C(F)(F)F)c2)c[nH]n1-c1ccc(F)cc1` came in with a melting point of 171 to 173 °C. With `O=C(CBr)Nc1ccc(I)cc1` the figure was 185 °C; with `CC(=O)c1ccc(C2=NC[C@@H](OC(=O)Nc3ccccc3)[C@H](c3ccccc3)O2)cc1` (racemic), 168 °C. As for `O=C(CBr)Nc1c(Cl)cccc1C(=O)O`, the melting point was in the range of 173 to 175 °C.

`C=CCSc1cc(C(=O)O)cc(S(N)(=O)=O)c1Oc1ccccc1` registered a melting point of 218 to 219 °C.

Consider `Cc1oc(-c2ccccc2)nc1CCC#N`, for which the melting point is 63 to 64 °C. As to `Cc1cnc(-c2ccc(-c3ccccc3S(=O)(=O)Nc3onc(C)c3C)cc2)o1`, the melting point lay within 90 to 100 °C. The figure for `CCOc1ccc(Nc2nc(NCc3ccco3)nc(Nc3ccc(O)cc3)n2)cc1` is 43 to 45 °C.

These data come from a melting point compilation (Tetko et al.; mined from patent text by program, amines drawn as free bases though some values may be those of a salt).
